Data from ChEMBL document CHEMBL5143523, “Construction and activity evaluation of novel benzodioxane derivatives as dual-target antifungal inhibitors” (Eur J Med Chem, 2022).
In brackets after ≈: the same amount, converted by molar mass. Activity calls are given as the source filed them. No cut-off for these calls is given here.

Tests used:
Candida albicans [1] = test: Antifungal activity against Candida albicans ATCC SC5314 assessed as decrease in ergosterol content at 4 ug/ml incubated for 48 hrs by LC-MS analysis (reference value: 90.6%); format: functional; set-up: scale not given: the % may be the effect or the level left; conditions: dose 4 µg/ml
Squalene epoxidase ERG1 = target: T1, Squalene epoxidase ERG1 (Candida albicans, UniProt Q92206); test: Inhibition of SE in Candida albicans ATCC SC5314 incubated for 30 mins using squalene as substrate in presence of NADPH by spectrophotometer analysis
T1 sequence (Q92206 whole entry): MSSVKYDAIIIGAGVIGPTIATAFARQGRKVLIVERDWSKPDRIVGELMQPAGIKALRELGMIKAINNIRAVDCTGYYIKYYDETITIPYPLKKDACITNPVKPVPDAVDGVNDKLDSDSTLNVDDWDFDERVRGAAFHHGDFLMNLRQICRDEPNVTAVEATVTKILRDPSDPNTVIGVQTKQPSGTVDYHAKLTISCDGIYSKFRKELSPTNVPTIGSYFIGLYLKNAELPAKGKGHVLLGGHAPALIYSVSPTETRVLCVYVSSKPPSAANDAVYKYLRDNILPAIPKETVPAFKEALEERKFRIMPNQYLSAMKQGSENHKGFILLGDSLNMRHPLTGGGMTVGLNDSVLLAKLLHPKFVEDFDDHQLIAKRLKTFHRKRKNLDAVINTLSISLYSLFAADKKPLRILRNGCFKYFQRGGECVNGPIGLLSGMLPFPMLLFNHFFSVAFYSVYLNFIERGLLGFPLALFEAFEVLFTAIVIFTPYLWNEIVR

Candida albicans [2] = test: Induction of morphological changes in Candida albicans assessed as structural damage in fungal cell wall at 4 ug/ml measured after 48 hrs by TEM analysis; format: functional, organism-based; conditions: dose 4.0 µg/ml
Candida albicans [3] = test: Antifungal activity against Candida albicans ATCC SC5314 assessed as change in squalene level at 4 ug/ml incubated for 48 hrs by LC-MS analysis; format: functional; conditions: dose 4 µg/ml
[4] = Hepatotoxicity in mouse infected with Candida albicans ATCC SC5314 assessed as change in plasma ALT level at 4 mg/kg, ip administered ever other day for 12 days; format: toxicity, organism-based; conditions: in vivo, 288 h, time 12 day
Candida albicans [5] = test: Antifungal activity against Candida albicans ATCC SC5314 assessed as change in eburicol level at 4 ug/ml incubated for 48 hrs by LC-MS analysis (reference value: 1.4%); format: functional; conditions: dose 4 µg/ml
Candida albicans [6] = test: Antifungal activity against fluconazole resistant Candida albicans strain 103 assessed as fungal growth inhibition measured after 72 hrs by CLSI protocol based liquid medium dilution method; format: functional
Candida albicans [7] = test: Induction of morphological changes in Candida albicans assessed as disappearance of endoplasmic reticulum at 4 ug/ml measured after 72 hrs by TEM analysis; format: functional, organism-based; conditions: dose 4.0 µg/ml
[8] = Toxicity in mouse infected with Candida albicans ATCC SC5314 assessed as pathological changes in spleen at 4 mg/kg, ip administered ever other day for 12 days by hematoxylin and eosin staining based histopathological analysis; format: organism-based; conditions: in vivo, 288 h, time 12 day
Candida albicans [9] = test: Induction of morphological changes in Candida albicans assessed as appearance of edema cavitation at 4 ug/ml measured after 72 hrs by TEM analysis; format: functional, organism-based; conditions: dose 4.0 µg/ml
Candida albicans [10] = test: Antifungal activity against fluconazole resistant Candida albicans strain 901 assessed as fungal growth inhibition measured after 72 hrs by CLSI protocol based liquid medium dilution method; format: functional
Candida albicans [11] = test: Induction of morphological changes in Candida albicans assessed as leakage of cellular contents at 4 ug/ml measured after 72 hrs by TEM analysis; format: functional, organism-based; conditions: dose 4.0 µg/ml
Candida albicans [12] = test: Antifungal activity against Candida albicans ATCC SC5314 assessed as change in unknown sterol level at 4 ug/ml incubated for 48 hrs by LC-MS analysis (reference value: 4.3%); format: functional; conditions: dose 4 µg/ml
Candida albicans [13] = test: Induction of apoptosis in Candida albicans ATCC SC5314 cells assessed as necrotic cells at 8 ug/ml incubated for 72 hrs by Annexin V-FITC/PI staining based flow cytometry method (reference value: 3.76%); format: functional; conditions: dose 8 µg/ml
Candida albicans [14] = test: Induction of morphological changes in Candida albicans assessed as enlargement of nucleus at 4 ug/ml measured after 72 hrs by TEM analysis; format: functional, organism-based; conditions: dose 4.0 µg/ml
Candida albicans [15] = test: Induction of apoptosis in Candida albicans ATCC SC5314 cells assessed as early apoptotic cells at 8 ug/ml incubated for 72 hrs by Annexin V-FITC/PI staining based flow cytometry method (reference value: 0.56%); format: functional; conditions: dose 8 µg/ml
[16] = Hepatotoxicity in mouse infected with Candida albicans ATCC SC5314 assessed as change in plasma AST level at 4 mg/kg, ip administered ever other day for 12 days; format: toxicity, organism-based; conditions: in vivo, 288 h, time 12 day
Pichia kudriavzevii = test: Antifungal activity against Candida krusei ATCC 6258 assessed as fungal growth inhibition measured after 72 hrs by CLSI protocol based liquid medium dilution method; format: functional
Candida albicans [17] = test: Antifungal activity against fluconazole resistant Candida albicans strain 904 assessed as fungal growth inhibition measured after 72 hrs by CLSI protocol based liquid medium dilution method; format: functional
Candida albicans [18] = test: Antifungal activity against fluconazole resistant Candida albicans strain 17# assessed as fungal growth inhibition measured after 72 hrs by CLSI protocol based liquid medium dilution method; format: functional
Mus musculus [19] = test: In vivo antifungal activity against Candida albicans ATCC SC5314 infected mouse model assessed as reduction in nuclear aggregation at 4 mg/kg, ip administered ever other day for 12 days by hematoxyin-eosin staining based microscopic analysis; format: functional, organism-based; conditions: time 12.0 day
Mus musculus [20] = test: In vivo antifungal activity against Candida albicans ATCC SC5314 infected mouse model assessed as disappearance of pathogenic fungi at 4 mg/kg, ip administered ever other day for 12 days by hematoxyin-eosin staining based microscopic analysis; format: functional, organism-based; conditions: time 12.0 day
[21] = Toxicity in mouse infected with Candida albicans ATCC SC5314 assessed as pathological changes in kidney at 4 mg/kg, ip administered ever other day for 12 days by hematoxylin and eosin staining based histopathological analysis; format: organism-based; conditions: in vivo, 288 h, time 12 day
[22] = Drug uptake in fluconazole resistant Candida albicans strain 901 at 4 ug/ml by fluorescence microscopy; format: ADME; conditions: dose 4 µg/ml
Candida albicans [23] = test: Induction of apoptosis in Candida albicans ATCC SC5314 cells assessed as live cells at 8 ug/ml incubated for 72 hrs by Annexin V-FITC/PI staining based flow cytometry method (reference value: 95.56%); format: functional; conditions: dose 8 µg/ml
Candida tropicalis = test: Antifungal activity against Candida tropicalis ATCC 1369 assessed as fungal growth inhibition measured after 72 hrs by CLSI protocol based liquid medium dilution method; format: functional
Candida albicans [24] = test: Antifungal activity against Candida albicans ATCC SC5314 assessed as change in lanosterol level at 4 ug/ml incubated for 48 hrs by LC-MS analysis (reference value: 3.7%); format: functional; conditions: dose 4 µg/ml
Mus musculus [25] = test: In vivo antifungal activity against Candida albicans ATCC SC5314 infected mouse assessed as reduction in fungal infection region at 4 mg/kg, ip administered ever other day for 12 days; format: functional, organism-based; conditions: time 12.0 day
[26] = Toxicity in mouse infected with Candida albicans ATCC SC5314 assessed as pathological changes in lung at 4 mg/kg, ip administered ever other day for 12 days by hematoxylin and eosin staining based histopathological analysis; format: organism-based; conditions: in vivo, 288 h, time 12 day
[27] = Toxicity in mouse infected with Candida albicans ATCC SC5314 assessed as pathological changes in heart at 4 mg/kg, ip administered ever other day for 12 days by hematoxylin and eosin staining based histopathological analysis; format: organism-based; conditions: in vivo, 288 h, time 12 day

CC(C)[C@H](NC(=O)c1cccc2c1OCCO2)C(=O)N[C@@H](Cn1cncn1)c1ccccc1
Activity (Candida albicans [1]): 20.8% | IC50 (Squalene epoxidase ERG1): 0.621 µM | Activity (Candida albicans [2]): Active | Activity (Candida albicans [3]): 27.5% | Activity [4]: 50.5 IU/L | Activity (Candida albicans [5]): 28.9% | MIC50 (Candida albicans [6]): 0.5 µg/mL (≈ 1.11 µM) | Activity (Candida albicans [7]): Active | Activity [8]: Non-Toxic | Activity (Candida albicans [9]): Active | MIC50 (Candida albicans [10]): 1 µg/mL (≈ 2.22 µM) | Activity (Candida albicans [11]): Active | Activity (Candida albicans [12]): 6.4% | Activity (Candida albicans [13]): 43.31% | Activity (Candida albicans [14]): Active | Activity (Candida albicans [15]): 0.41% | Activity [16]: 85.5 IU/L | MIC50 (Pichia kudriavzevii): 0.25 µg/mL (≈ 0.556 µM) | MIC50 (Candida albicans [17]): 2 µg/mL (≈ 4.45 µM) | MIC50 (Candida albicans [18]): 1 µg/mL (≈ 2.22 µM) | Activity (Mus musculus [19]): Active | Activity (Mus musculus [20]): Active | Activity [21]: Non-Toxic | Drug uptake [22]: Active | Activity (Candida albicans [23]): 54.5% | MIC50 (Candida tropicalis): 0.125 µg/mL (≈ 0.278 µM) | Activity (Candida albicans [24]): 16.4% | Activity (Mus musculus [25]): Active | Activity [26]: Non-Toxic | Activity [27]: Non-Toxic
